From the NIST ThermoML archive (doi:10.1016/j.jct.2014.02.024)

Assay: mn = molality of the nth substance listed, in mol/kg
Conditions: 101.3 kPa, Liquid; for viscosity: Capillary tube (Ostwald / Ubbelohde) method; for mass density: Pycnometric method

NC(=O)c1cccnc1 [3-pyridinecarboxamide] + O
Conditions | mass density [kg/m3] | viscosity [mPa·s]
275.15 K, m1 = 0.0101 | 1000.22 | 1.683
275.15 K, m1 = 0.0201 | 1000.53 | 1.687
275.15 K, m1 = 0.03 | 1000.83 | 1.691
275.15 K, m1 = 0.035 | 1001.02 | 1.697
275.15 K, m1 = 0.0401 | 1001.11 | 1.703
275.15 K, m1 = 0.0452 | 1001.26 | 1.707
275.15 K, m1 = 0.0502 | 1001.51 | 1.71
275.15 K, m1 = 0.0598 | 1001.74 | 1.711
275.15 K, m1 = 0.0651 | 1001.85 | 1.714
275.15 K, m1 = 0.07 | 1002.13 | 1.718
275.15 K, m1 = 0.0749 | 1002.21 | 1.724
275.15 K, m1 = 0.08 | 1002.41 | 1.721
275.15 K, m1 = 0.0852 | 1002.57 | 1.724
275.15 K, m1 = 0.1004 | 1002.93 | 1.73
277.15 K, m1 = 0.01 | 1000.25 | 1.578
277.15 K, m1 = 0.0202 | 1000.54 | 1.583
277.15 K, m1 = 0.03 | 1000.97 | 1.588
277.15 K, m1 = 0.0348 | 1000.98 | 1.59
277.15 K, m1 = 0.045 | 1001.27 | 1.595
277.15 K, m1 = 0.05 | 1001.42 | 1.598
277.15 K, m1 = 0.0601 | 1001.66 | 1.603
277.15 K, m1 = 0.0652 | 1001.86 | 1.605
277.15 K, m1 = 0.0691 | 1002 | 1.607
277.15 K, m1 = 0.075 | 1002.19 | 1.61
277.15 K, m1 = 0.0801 | 1002.29 | 1.612
277.15 K, m1 = 0.0849 | 1002.44 | 1.615
279.15 K, m1 = 0.02 | 1000.51 | 1.481
279.15 K, m1 = 0.0302 | 1000.82 | 1.482
279.15 K, m1 = 0.0347 | 1000.97 | 1.485
279.15 K, m1 = 0.0348 | 1000.92 | 1.485
279.15 K, m1 = 0.04 | 1001.13 | 1.487
279.15 K, m1 = 0.0451 | 1001.28 | 1.488
279.15 K, m1 = 0.05 | 1001.45 | 1.493
279.15 K, m1 = 0.0598 | 1001.7 | 1.495
279.15 K, m1 = 0.0699 | 1001.95 | 1.5
279.15 K, m1 = 0.0749 | 1002.04 | 1.504
279.15 K, m1 = 0.0799 | 1002.19 | 1.507
279.15 K, m1 = 0.0849 | 1002.36 | 1.51
279.15 K, m1 = 0.0897 | 1002.44 | 1.513
279.15 K, m1 = 0.1004 | 1002.78 | 1.52
